Laboratory results reported in patent US20060115816A1, “Splice variant cannabinoid receptor (cb1b)” (priority 2002, published 2006).
Read-outs that look alike come from different tables or passages of the source.

Tests used:
[1] = target: T1, hCB2 (Homo sapiens, UniProt P34972); experiment: GTPγ[35S] binding assay, agonist properties on hCB2; type: biochemical
T1 construct: expressed in transfected cells

[2] = target: T2, hCB1b (Homo sapiens, UniProt P21554); experiment: biochemical; type: biochemical
T2 construct: expressed in transfected cells

[3] = target: T3, un-spliced human CB 1 receptor (Homo sapiens, UniProt P21554); experiment: FLIPR intracellular calcium mobilization assay (Fluo-3), HEK-293S cells expressing un-spliced hCB1 receptor and Gα16; type: cell-based
T3 construct: expressed in transfected cells

[4] = target: T4, hCB1a (Homo sapiens, UniProt P21554); experiment: biochemical; type: biochemical
T4 construct: expressed in transfected cells

[5] = target: T2, hCB1b; experiment: FLIPR intracellular calcium mobilization assay (Fluo-3), HEK-293S cells expressing human CB1b receptor and Gα16; type: cell-based
Method: In order to assess the functionality of the human CB1b receptor variant, a functional assay was performed with FLIPR (Fluorescent Imaging Plate Reader, Molecular Devices) using the fluorescent calcium indicator Fluo-3 (Molecular Probes) on a 96 well platform. […] On the day of the experiment, the cells were initially washed once with Hank's buffer (pH7.4) containing 20 mM Hepes and 0.1% BSA (HBSS buffer) and subsequently loaded with fluorescent solution (HBSS buffer, 4 μM Fluor-3 and 0.04% pluronic acid). The cells were incubated at 37° C. for 1 hour in a humidified chamber. Following the incubation step, cells were washed five times with HBSS buffer. […] A range of other natural and synthetic cannabinoid ligands were also tested.

[6] = target: T5, hCB1 (Homo sapiens, UniProt P21554); experiment: biochemical; type: biochemical
T5 construct: expressed in transfected cells

[7] = agonist, GTPγ[35S] binding assay, read-out: EC50 hCB1b
[8] = agonist, GTPγ[35S] binding assay, read-out: EC50 hCB1a
[9] = agonist, GTPγ[35S] binding assay, read-out: EC50 hCB1

T2 sequence (P21554 1-439 isoform P21554-3): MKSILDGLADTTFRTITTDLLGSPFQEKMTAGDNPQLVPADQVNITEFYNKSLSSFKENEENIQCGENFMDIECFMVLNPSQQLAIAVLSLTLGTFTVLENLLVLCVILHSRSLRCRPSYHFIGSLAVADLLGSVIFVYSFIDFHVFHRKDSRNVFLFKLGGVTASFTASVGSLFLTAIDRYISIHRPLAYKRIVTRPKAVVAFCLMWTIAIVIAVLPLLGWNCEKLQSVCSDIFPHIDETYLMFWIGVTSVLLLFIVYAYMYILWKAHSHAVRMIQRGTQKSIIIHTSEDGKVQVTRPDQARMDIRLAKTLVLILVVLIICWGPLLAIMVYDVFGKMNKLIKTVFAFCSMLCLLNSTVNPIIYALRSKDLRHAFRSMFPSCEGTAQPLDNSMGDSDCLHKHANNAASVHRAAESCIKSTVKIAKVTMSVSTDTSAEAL
T1 sequence (P34972 whole entry): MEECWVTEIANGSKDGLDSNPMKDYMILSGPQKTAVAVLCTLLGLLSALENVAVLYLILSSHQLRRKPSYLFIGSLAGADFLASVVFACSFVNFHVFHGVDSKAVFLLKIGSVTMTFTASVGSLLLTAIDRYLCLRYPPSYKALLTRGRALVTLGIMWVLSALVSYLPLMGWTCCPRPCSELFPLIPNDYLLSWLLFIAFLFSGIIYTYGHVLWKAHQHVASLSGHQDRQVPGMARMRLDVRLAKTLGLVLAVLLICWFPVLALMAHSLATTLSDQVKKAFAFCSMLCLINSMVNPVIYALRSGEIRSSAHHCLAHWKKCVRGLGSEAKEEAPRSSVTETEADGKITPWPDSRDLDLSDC
T5 sequence (P21554 whole entry): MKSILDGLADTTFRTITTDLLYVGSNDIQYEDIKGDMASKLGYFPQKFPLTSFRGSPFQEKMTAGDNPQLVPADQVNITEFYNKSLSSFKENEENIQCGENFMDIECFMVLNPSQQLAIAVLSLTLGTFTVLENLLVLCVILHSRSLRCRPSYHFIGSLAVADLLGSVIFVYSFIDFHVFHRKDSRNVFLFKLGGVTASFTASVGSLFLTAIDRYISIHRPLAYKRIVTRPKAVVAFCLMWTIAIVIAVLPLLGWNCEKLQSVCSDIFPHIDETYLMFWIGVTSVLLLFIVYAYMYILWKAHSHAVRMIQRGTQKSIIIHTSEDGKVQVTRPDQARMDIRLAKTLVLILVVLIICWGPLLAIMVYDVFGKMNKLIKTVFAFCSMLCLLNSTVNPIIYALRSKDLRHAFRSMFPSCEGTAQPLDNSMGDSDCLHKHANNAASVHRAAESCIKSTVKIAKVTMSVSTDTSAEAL
T4 sequence (P21554 1-411 isoform P21554-2): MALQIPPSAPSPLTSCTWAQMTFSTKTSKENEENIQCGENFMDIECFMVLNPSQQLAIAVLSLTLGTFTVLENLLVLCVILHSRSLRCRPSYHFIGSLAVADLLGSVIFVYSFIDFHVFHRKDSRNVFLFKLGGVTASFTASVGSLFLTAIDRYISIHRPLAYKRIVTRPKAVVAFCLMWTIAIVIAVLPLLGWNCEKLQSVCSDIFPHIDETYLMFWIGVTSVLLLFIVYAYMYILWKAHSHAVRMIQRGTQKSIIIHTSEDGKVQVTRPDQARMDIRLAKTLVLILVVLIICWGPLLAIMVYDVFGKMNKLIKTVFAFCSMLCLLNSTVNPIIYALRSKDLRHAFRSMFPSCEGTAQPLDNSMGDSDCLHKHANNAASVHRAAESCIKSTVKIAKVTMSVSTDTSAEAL
T3 sequence (P21554 whole entry, canonical isoform): as the sequence (P21554 whole entry) above

Row | Structure (SMILES) | EC50 [1] [nM] | EC50 [2, 7] [nM] | EC50 [4, 8] [nM] | EC50 [6, 9] [nM] | also measured
1 | CCCCC/C=C\C/C=C\C/C=C\C/C=C\CCCC(=O)OC(CO)CO [2-arachodonylglycerol] | 1690 |  |  |  | 
2 | CCCCCCC(C)(C)c1cc(O)c2c(c1)OC(C)(C)[C@@H]1CC=C(CO)C[C@@H]21 [Hu210] |  |  |  |  | EC50 [2]: 0.15 nM; EC50 [3]: 0.06 nM; EC50 [4]: 0.2 nM; EC50 [5]: 0.15 nM; EC50 [6]: 0.06 nM
3 | CCCC(C)(C)c1ccc2c(c1)OC(C)(C)[C@@H]1CC=C(C)C[C@@H]21 [JWH133] | 1.8 | > 1000 | > 1000 | > 1000 | 
4 | CCCCC/C=C\C/C=C\C/C=C\C/C=C\CCCCOC(CO)CO [Noladin Ether] | > 1000 |  |  |  | EC50 ([2]; read-out: EC50 hCB1b): > 1000 nM; EC50 ([4]; read-out: EC50 hCB1a): > 1000 nM; EC50 ([6]; read-out: EC50 hCB1): 5.1 nM
5 | CCCCCCCCCCCCCCCC(=O)NCCO [Palmitoylethanolamine] | 349 | > 1000 | > 1000 | > 1000 | 
6 | CCCCC/C=C\C/C=C\C/C=C\C/C=C\CCCC(=O)OCCN [Virodhamine] | 1310 | > 1000 | > 1000 | 934 | 
